Assay results published in patent publication US12552796B2, “EED inhibitor, and preparation method therefor and use thereof” (SHANGHAITECH UNIVERSITY, priority 2019, dated 2026).

These compounds were tested on cellular H3K27 methylation (assay: Cellular H3K27 methylation assay (Western blot of H3K27me3 in HeLa cells)). Conditions: Homo sapiens, 72 h; HeLa cells, 3 days, H3K27me3 level by Western blot; read-out: PD IC50.
Format: cell-based
Work on `Fc1ccc2c(c1CNc1ncc(/C=C/CN3CCCCC3)c3nncn13)CCO2` [HJM-006] yielded an IC50 of 48.7 nM.
`CN(C)CCOc1cnc(NCc2c(F)ccc3c2CCO3)n2cnnc12` [HJM-119] was tested, and the IC50 was 264 nM.
`Fc1ccc2c(c1CNc1ncc(OCc3cnco3)c3nncn13)CCO2` [HJM-134] was tested, and the IC50 was 159 nM.
`O=C(Nc1cnc(NCc2c(F)ccc3c2CCO3)n2cnnc12)c1ccccc1F` [HJM-092] was tested, and the IC50 was 139 nM.
`Fc1ccc2c(c1CNc1ncc(OCc3ccncc3)c3nncn13)CCO2` [HJM-141] gave an IC50 of 64.4 nM.
`OC1CCC(Oc2cnc(NCc3c(F)ccc4c3CCO4)n3cnnc23)CC1` (centres unmarked) [HJM-121] gave an IC50 of 494 nM.
Compound `Fc1ccc2c(c1CNc1ncc(OCc3cccnc3)c3nncn13)CCO2` [HJM-140] has an IC50 of 21.4 nM.
With `Fc1ccc2c(c1CNc1ncc(OC3CC(F)(F)C3)c3nncn13)CCO2` [HJM-107] the IC50 was 48.5 nM.
With `Fc1ccc2c(c1CNc1ncc(CCCN3CCCCC3)c3nncn13)CCO2` [HJM-008] the IC50 was 112 nM.
Work on `Fc1ccc2c(c1CNc1ncc(OCCn3cccc3)c3nncn13)CCO2` [HJM-128] yielded an IC50 of 62 nM.
In the case of `O=C(Nc1cnc(NCc2c(F)ccc3c2CCO3)n2cnnc12)c1cnco1` [HJM-094], the IC50 is reported as 223 nM.
With `CS(=O)(=O)c1ccc(C(=O)Nc2cnc(NCc3c(F)ccc4c3CCO4)n3cnnc23)cc1` [HJM-093] the IC50 was 814 nM.
In the case of `O=C(Nc1cnc(NCc2c(F)ccc3c2CCO3)n2cnnc12)C1CCOC1` (centres unmarked) [HJM-038], the IC50 is reported as 187 nM.
Compound `CN1CC(C(=O)Nc2cnc(NCc3c(F)ccc4c3CCO4)n3cnnc23)C1` [HJM-087] has an IC50 of 235 nM.
`Cc1ncccc1CCc1cnc(NCc2c(F)ccc3c2CCO3)n2cnnc12` [HJM-005] gave an IC50 of 454 nM.
Work on `COCCN1CC(C(=O)Nc2cnc(NCc3c(F)ccc4c3CCO4)n3cnnc23)C1` [HJM-088] yielded an IC50 of 601 nM.
`CN(C)CC(=O)Nc1cnc(NCc2c(F)ccc3c2CCO3)n2cnnc12` [HJM-081] showed an IC50 of 77.6 nM.
Compound `CNCCOc1cnc(NCc2c(F)ccc3c2CCO3)n2cnnc12` [HJM-118] has an IC50 of 792 nM.
`CC(c1cnc(NCc2c(F)ccc3c2CCO3)n2cnnc12)N1CCCCC1` (centres unmarked) [HJM-009] was tested, and the IC50 was 563 nM.
`N#CCC(=O)Nc1cnc(NCc2c(F)ccc3c2CCO3)n2cnnc12` [HJM-074] was tested, and the IC50 was 554 nM.
Work on `CC(=O)N1CC(COc2cnc(NCc3c(F)ccc4c3CCO4)n3cnnc23)C1` [HJM-117] yielded an IC50 of 1300 nM.
Compound `COc1cnc(NCc2c(F)ccc3c2CCO3)n2cnnc12` [HJM-014] has an IC50 of 43.7 nM.
Work on `Fc1ccc2c(c1CNc1ncc(NCCN3CCOCC3)c3nncn13)CCO2` [HJM-023] yielded an IC50 of 1160 nM.
`Fc1ccc2c(c1CNc1ncc(OCCn3cncn3)c3nncn13)CCO2` [HJM-129] gave an IC50 of 389 nM.
`COc1ccc(OCCOc2cnc(NCc3c(F)ccc4c3CCO4)n3cnnc23)cc1` [HJM-127] was tested, and the IC50 was 108 nM.
In the case of `COCCC(COC)c1cnc(NCc2c(F)ccc3c2CCO3)n2cnnc12` (centres unmarked) [HJM-012], the IC50 is reported as 112 nM.
For `CN1CCC(Oc2cnc(NCc3c(F)ccc4c3CCO4)n3cnnc23)C1=O` (centres unmarked) [HJM-135], the IC50 was 286 nM.
In the case of `O=C(NC1CC1)c1cnc(NCc2c(F)ccc3c2CCO3)n2cnnc12` [HJM-029], the IC50 is reported as 82.2 nM.
`Fc1ccc2c(c1CNc1ncc(C3CC3)c3nncn13)CCO2` [HJM-002] gave an IC50 of 98.8 nM.
With `CS(=O)(=O)N1CCC(c2cnc(NCc3c(F)ccc4c3CCO4)n3cnnc23)C1` (centres unmarked) [HJM-050] the IC50 was 50.5 nM.
`O=C(C1CC1)N1CC(Oc2cnc(NCc3c(F)ccc4c3CCO4)n3cnnc23)C1` [HJM-115] showed an IC50 of 201 nM.
Compound `Cc1cccc(COc2cnc(NCc3c(F)ccc4c3CCO4)n3cnnc23)n1` [HJM-143] has an IC50 of 204 nM.
Work on `Fc1ccc2c(c1CNc1ncc(C3CCN(C4CC4)CC3)c3nncn13)CCO2` [HJM-059] yielded an IC50 of 38.5 nM.
`[2H]C([2H])(Nc1ncc(N(C)C(=O)C2CC2)c2nncn12)c1c(F)ccc2c1CCO2` [HJM-077] gave an IC50 of 14.9 nM.

Same assay, conditions: Homo sapiens, HeLa, 72 h, read-out: PD IC50
For `Fc1ccc2c(c1CNc1ncc(Nc3ccccc3)c3nncn13)CCO2` [HJM-066], the IC50 was 228 nM.
`Fc1ccc2c(c1CNc1ncc(OCc3ccccc3)c3nncn13)CCO2` [HJM-139] showed an IC50 of 120 nM.
For `CN(C)C(=O)Oc1cnc(NCc2c(F)ccc3c2CCO3)n2cnnc12` [HJM-151], the IC50 was 91.1 nM.
`CN(C)C(=O)COc1cnc(NCc2c(F)ccc3c2CCO3)n2cnnc12` [HJM-149] gave an IC50 of 546 nM.
